Measured values as given in patent US10125126B2, “N-cycloalkyl-N-[(heterocyclylphenyl)methylene]-(thio)carboxamide derivatives” (BAYER CROPSCIENCE AG, priority 2012, dated 2018).

How the values were obtained:
[1] = log P by HPLC on a reversed-phase column (C 18), EEC Directive 79/831 Annex V.A8; format: physicochemical; details: HPLC on reversed-phase column (C 18), 40° C., 0.1% aqueous formic acid and acetonitrile, linear gradient 10% to 90% acetonitrile
Procedure: In table 1, the log P values were determined in accordance with EEC Directive 79/831 Annex V.A8 by HPLC (High Performance Liquid Chromatography) on a reversed-phase column (C 18), using the method described below: Temperature: 40° C.; Mobile phases: 0.1% aqueous formic acid and acetonitrile; linear gradient from 10% acetonitrile to 90% acetonitrile. Calibration was carried out using unbranched alkan-2-ones (comprising 3 to 16 carbon atoms) with known log P values (determination of the log P values by the retention times using linear interpolation between two successive alkanones). lambda-max-values were determined using UV-spectra from 200 nm to 400 nm and the peak values of the chromatographic signals.

[2] = tested on: Puccinia recondita; assay: In vivo preventive test on Puccinia recondita (brown rust on wheat); details: wheat plants, 12 days after contamination
Procedure: In Vivo Preventive Test on Puccinia recondita (Brown Rust on Wheat) […] Wheat plants (“Scipion” variety), sown in starter cups on a 50/50 peat soil pozzolana substrate and grown at 22° C., are treated at the 1 leaf stage (10 cm height) by spraying with the active ingredient prepared as described above. Plants, used as controls, are treated with the mixture of acetone/tween/DMSO/water not containing the active material. After 24 hours, the plants are contaminated by spraying the leaves with an aqueous suspension of Puccinia recondita spores (100 000 spores per mL). The spores are collected from an infected plant and are suspended in water containing 2.5 mL/L of Tween 80 at 10%. […] Grading (% of efficacy) is carried out 12 days after the contamination, in comparison with the control plants.

[3] = tested on: Uromyces appendiculatus; assay: In vivo preventive test on Uromyces appendiculatus (bean rust); details: bean plants, 11 days after contamination
Procedure: In Vivo Preventive Test on Uromyces appendiculatus (Bean Rust) […] Bean plants (“Saxa” variety), sown in starter cups on a 50/50 peat soil pozzolana substrate and grown at 24° C., are treated at the 2 leaf stage (9 cm height) by spraying with the active ingredient prepared as described above. Plants, used as controls, are treated with the mixture of acetone/tween/DMSO/water not containing the active material. After 24 hours, the plants are contaminated by spraying the leaves with an aqueous suspension of Uromyces appendiculatus spores (150 000 spores per mL). The spores are collected from infected plants and are suspended in water containing 2.5 mL/L of Tween 80 at 10%. […] Grading (% of efficacy) is carried out 11 days after the contamination, in comparison with the control plants.

[4] = tested on: Sphaerotheca fuliginea; assay: In vivo preventive test on Sphaerotheca fuliginea (powdery mildew on cucurbits); details: gherkin plants, 12 days after contamination
Procedure: In Vivo Preventive Test on Sphaerotheca fuliginea (Powdery Mildew on Cucurbits) […] Gherkin plants (“Vert petit de Paris” variety), sown in starter cups on a 50/50 peat soil-pozzolana substrate and grown at 24° C., are treated at the Z11 cotyledon stage by spraying with the active ingredient prepared as described above. Plants, used as controls, are treated with the mixture of acetone/tween/DMSO/water not containing the active material. After 24 hours, the plants are contaminated by spraying the cotyledons with an aqueous suspension of Sphaerotheca fuliginea spores (100 000 spores per mL). The spores are collected from infected plants. […] Grading (% of efficacy) is carried out 12 days after the contamination, in comparison with the control plants.

[5] = tested on: Septoria tritici; assay: In vivo preventive test on Septoria tritici (wheat); details: wheat plants, 24 days after contamination
Procedure: In Vivo Preventive Test on Septoria tritici (Wheat) […] Wheat plants (“Scipion” variety), sown in starter cups on a 50/50 peat soil pozzolana substrate and grown at 22° C., are treated at the 1 leaf stage (10 cm height) by spraying with the active ingredient prepared as described above. Plants, used as controls, are treated with the mixture of acetone/tween/DMSO/water not containing the active material. After 24 hours, the plants are contaminated by spraying the leaves with an aqueous suspension of cryopreserved Septoria tritici spores (500 000 spores per mL). The contaminated wheat plants are incubated for 72 hours at 18° C. and at 100% relative humidity, and then for 21 days at 90% relative humidity. Grading (% of efficacy) is carried out 24 days after the contamination, in comparison with the control plants.

[6] = tested on: Botrytis cinerea; assay: In vivo preventive test on Botrytis cinerea (grey mould); details: gherkin plants, 4 to 5 days after contamination
Procedure: In Vivo Preventive Test on Botrytis cinerea (Grey Mould) […] Gherkin plants (“Vert petit de Paris” variety), sown in starter cups on a 50/50 peat soil pozzolana substrate and grown at 24° C., are treated at the Z11 cotyledon stage by spraying with the active ingredient prepared as described above. Plants, used as controls, are treated with the mixture of acetone/tween/DMSO/water not containing the active material. After 24 hours, the plants are contaminated by spraying the cotyledons with an aqueous suspension of cryopreserved Botrytis cinerea spores (50 000 spores per mL). The spores are suspended in a nutrient solution composed of 10 g/L of PDB, 50 g/L of D-Fructose, 2 g/L of NH4NO3 and 1 g/L of KH2PO4. The contaminated gherkin plants are incubated at 17° C. and at 90% relative humidity. Grading (% of efficacy) is carried out 4 to 5 days after the contamination, in comparison with the control plants.

Compound	logP [1]	Efficacy ([2]; 500 ppm of active ingredient)	Efficacy ([3]; 500 ppm of active ingredient)	Efficacy ([4]; 500 ppm of active ingredient)	Efficacy ([2]; 100 ppm of active ingredient)	Efficacy ([3]; 100 ppm of active ingredient)	Efficacy ([5]; 100 ppm of active ingredient)	Efficacy ([6]; 100 ppm of active ingredient)	Efficacy ([5]; 500 ppm of active ingredient)	Efficacy ([6]; 500 ppm of active ingredient)	Efficacy ([4]; 100 ppm of active ingredient)
Cn1nc(C(F)F)c(C(=O)N(Cc2ccccc2C2COC2)C2CC2)c1F [I.1]	1.51	75%	83%	93%							
Cn1cc(C(=O)N(Cc2cc(F)ccc2C2(C)CO2)C2CC2)c(C(F)F)n1 (centres unmarked) [I.6]	2.53				81%	73%	92%				
Cn1cc(C(=O)N(Cc2ccccc2-c2ccco2)C2CC2)c(C(F)F)n1 [I.31]	2.96							81%			
Cn1nc(C(F)F)c(C(=O)N(Cc2cc(-c3ccco3)ccc2Cl)C2CC2)c1Cl [I.35]	4.01							94%			
Cc1ccc(-c2ccoc2)c(CN(C(=O)c2c(C(F)F)nn(C)c2Cl)C2CC2)c1 [I.37]	3.71				81%	83%					
Cn1ccc(-c2ccc(Cl)cc2CN(C(=O)c2c(C(F)F)nn(C)c2F)C2CC2)c1 [I.48]	3.71	75%	96%						86%		
Cn1cc(-c2ccc(Cl)cc2CN(C(=O)c2c(C(F)F)nn(C)c2F)C2CC2)cn1 [I.55]	2.80	95%	99%	100%					95%		
Cn1cc(-c2ccc(F)cc2CN(C(=O)c2c(C(F)F)nn(C)c2F)C2CC2)cn1 [I.56]	2.50	78%	85%	98%					100%		
Cc1ccc(-c2cnn(C)c2)c(CN(C(=O)c2cn(C)nc2C(F)F)C2CC2)c1 [I.59]	2.37							81%			
Cn1nc(C(F)F)c(C(=O)N(Cc2ccccc2-c2cccs2)C2CC2)c1F [I.69]	3.64	94%	100%	100%					97%		
Cn1cc(C(=O)N(Cc2ccccc2-c2ccsc2)C2CC2)c(C(F)F)n1 [I.70]	3.17	78%	96%	85%					86%		

Further lines, with some results ahead:

logP [1]	Compound	Efficacy ([2]; 500 ppm of active ingredient)	Efficacy ([3]; 500 ppm of active ingredient)	Efficacy ([4]; 500 ppm of active ingredient)	Efficacy ([2]; 100 ppm of active ingredient)	Efficacy ([3]; 100 ppm of active ingredient)	Efficacy ([5]; 100 ppm of active ingredient)	Efficacy ([6]; 100 ppm of active ingredient)	Efficacy ([5]; 500 ppm of active ingredient)	Efficacy ([6]; 500 ppm of active ingredient)	Efficacy ([4]; 100 ppm of active ingredient)
3.71	Cn1nc(C(F)F)c(C(=O)N(Cc2ccccc2-c2ccsc2)C2CC2)c1Cl [I.76]	93%	96%						75%		
3.78	Cn1nc(C(F)F)c(C(=O)N(Cc2ccccc2-c2cccs2)C2CC2)c1Cl [I.78]		85%						83%	78%	
3.78	CC(c1ccccc1-c1ccsc1)N(C(=O)c1c(C(F)F)nn(C)c1F)C1CC1 (centres unmarked) [I.82]				81%		97%	97%			98%
3.68	Cn1cc(C(=O)N(Cc2cc(-c3cccs3)ccc2Cl)C2CC2)c(C(F)F)n1 [I.84]						71%	100%			
3.48	CC1CC1N(Cc1ccccc1-c1ccsc1)C(=O)c1cn(C)nc1C(F)F (centres unmarked) [I.87]	75%	84%								
4.25	Cc1ccc(-c2cscc2C)c(CN(C(=O)c2c(C(F)F)nn(C)c2F)C2CC2)c1 [I.108]						86%	100%			75%
2.98	CC1=NOC(C)(c2ccc(C)cc2CN(C(=O)c2c(C(F)F)nn(C)c2F)C2CC2)C1 (centres unmarked) [I.111]				88%	100%					100%
3.83	COc1ccsc1-c1ccc(C)cc1CN(C(=O)c1c(C(F)F)nn(C)c1F)C1CC1 [I.125]				81%		96%	78%			95%
4.51	Cn1nc(C(F)F)c(C(=O)N(Cc2ccccc2-c2ccc(Cl)s2)C2CC2)c1Cl [I.141]	86%							83%	90%	
4.85	Cn1cc(C(=O)N(Cc2cc(Cl)ccc2-c2ccc(Cl)s2)C2CC2)c(C(F)F)c1 [I.146]									100%	
4.26	Cc1ccc(-c2ccsc2Cl)c(CN(C(=O)c2c(C(F)F)nn(C)c2F)C2CC2)c1 [I.150]				81%		80%	90%			100%
4.74	Cn1nc(C(F)F)c(C(=O)N(Cc2cc(Cl)ccc2-c2csc3ccccc23)C2CC2)c1F [I.155]	75%	99%						86%		
4.27	Cn1nc(C(F)F)c(C(=O)N(Cc2ccccc2-c2csc3ccccc23)C2CC2)c1F [I.156]	81%		95%					96%	97%	
3.50	Cn1nc(C(F)F)c(C(=O)N(Cc2ccccc2Oc2nc(Cl)cc(Cl)n2)C2CC2)c1F [I.168]	81%	99%	83%					80%		
